According to patent US20100190237A1, “COMPOSITIONS AND METHODS FOR STORAGE OF BACTERIAL SUSPENSIONS” (priority 2007, published 2010):

How the values were obtained:
[1] = tested on: P. leiognathi; test: ToxScreen-II toxicity assay (bacterial luminescence) with stored bacterial suspension; type: cell-based; conditions: light level after 30 minutes at 27° C.
Experimental: In order to determine how long a bacterial suspension stored in a solution according to an exemplary embodiment of the invention could be useful in a toxicity assay, a toxicity assay (ToxScreen-II, CheckLight Ltd, Qiryat Tivon, Israel) was conducted repeatedly over time.
In the assay, 0.01 mL aliquots were drawn from the bacterial suspension (P. leiognathi) in the medium at 4 time points during 30 days and incubated with chemical toxicants in assay buffer diluted in mineral water. Light level was determined after 30 minutes at 27° C.

[2] = tested on: luminescent bacteria (e.g. Photobacterium leiognathi, Vibrio fischeri, Vibrio harveyi); test: titration of medium components: luminescence during long term storage at refrigeration temperatures; type: cell-based; conditions: for range II: concentrations that produced no negative effect relative to negative control / range I: concentrations that provided a marked improvement over negative control: based on results of examples 2 through 9; for concentration that slowed the reduction in luminescence better than other tested concentrations: storage at -2 to +4° C. over several weeks, other components constant as in Table 1, pH 7.2; for effect of antibiotic on luminescence during long term storage: antibiotic at 15 mg/L in storage solution
Experimental: In order to identify storage conditions suitable for a long term medium for a suspension of luminescent bacteria (e.g. Photobacterium leiognathi, Vibrio fischeri, Vibrio harveyi) different concentrations of monovalent salts, sugars, sources of divalent cations, protein mixtures, albumins and alcohols were tested.
Each of the medium components (including pH) was tested separately while all other components were kept at a constant concentration as indicated in Table 1. For titration of other components pH was held constant at 7.2. The effect on bacterial luminescence of each component at each tested concentration (or pH value) was determined over a period of several weeks.
In order to perform the titration of the medium components, a bacterial culture was spread on LA plates at about 300 colonies per plate after over night growth. Colonies were collected from plates with ASW and centrifuged (10000 g, 10 minutes, 4° C.). Harvested bacteria were resuspended in the different solutions to form experimental bacterial suspensions.
Experimental bacterial suspensions were stored at −2° C.-+4° C. Each week an aliquot of each experimental bacterial suspension was drawn and diluted in artificial seawater (ASW: 0.5M NaCl, 50 mM MgSO47H2O, 10 mM CaCl22H2O, 10 mM KCl)) supplemented with 50 ppm yeast extract/glucose and incubated at 26° C.-28° C. Light level was recorded after 30 minutes.

[3] = tested on: E. coli harboring the luminescence system of V. fischeri; conditions: titration as in Example 6; data not shown
Experimental: In order to determine the effect of monovalent salts on luminescence during long term storage at refrigeration temperatures, NaCl was added to medium at concentrations of 0.1, 0.5, 2.0, 3.0 and 4.5%. […] Assay of the effect of NaCl was as described in Example 1.

Compound	Sensitivity of P. leiognathi to various toxicants ([1]; Day 1 of storage)	Sensitivity of P. leiognathi to various toxicants ([1]; Day 7 of storage)	Sensitivity of P. leiognathi to various toxicants ([1]; Day 18 of storage)	Sensitivity of P. leiognathi to various toxicants ([1]; Day 30 of storage)	range II: concentrations that produced no negative effect relative to negative control [2]	range I: concentrations that provided a marked improvement over negative control [2]	other results
[K+].[K+].[O]=[Cr](=[O])([O-])[O][Cr](=[O])(=[O])[O-] [K2Cr2O7]	0.5 mg/L	0.7 mg/L	0.5 mg/L	0.6 mg/L			
Bovine serum albumin [BSA]					0.02-1.0%		
O[C@H]1[C@H](O)[C@@H](O)[C@H](O)[C@@H](O)[C@H]1O [inositol]					0.5-7.0%	5.0-7.0%	concentration that slowed the reduction in luminescence better than other tested concentrations [2]: 5%
[Cl][Cd][Cl] [CdCl2]	0.2 mg/L	0.25 mg/L	0.3 mg/L	0.4 mg/L			
CC1(C)S[C@@H]2[C@H](NC(=O)[C@H](N)c3ccccc3)C(=O)N2[C@H]1C(=O)O [ampicillin]							effect of antibiotic on luminescence during long term storage [2]: slowed the reduction in luminescence better than other tested antibiotics
CCO [ethanol]					0.1-3.5%	1.0-3.5%	concentration that slowed the reduction in luminescence better than other tested concentrations [2]: ≥ 1.5%
Clc1ccc(C(c2ccc(Cl)cc2)C(Cl)(Cl)Cl)cc1 [DDT]	0.007 mg/L	0.006 mg/L	0.004 mg/L	0.006 mg/L			
[Cl-].[Na+] [NaCl]					1.0-3.0%	2.0-3.0%	salt concentration determined to be useful (preserving luminescence) [3]: 0.8-0.85%
[Cl-].[Cl-].[Mg+2] [magnesium, MgCl2]					0.0 to 300 mM	1.0 to 200 mM	concentration that slowed the reduction in luminescence better than other tested concentrations [2]: 200 mM
O=C(N[C@H](CO)[C@H](O)c1ccc([N+](=O)[O-])cc1)C(Cl)Cl [chloramphenicol]							effect of antibiotic on luminescence during long term storage [2]: slowed the reduction in luminescence better than other tested antibiotics
[Cl][Pb][Cl] [PbCl2]	2 mg/L	2.5 mg/L	3 mg/L	2.5 mg/L			
